{
  "source": "patent US20090325909A1",
  "about": "“Suppression of HIV replication and prevention and treatment of HIV” (The Johns Hopkins University, priority 2003, published 2009)",
  "key": {"[1]": {"system": "SIV/DeltaB670 and SIV/17E-Fr", "assay": "Incidence and severity of encephalitis in the accelerated SIV/macaque model", "format": "in vivo, pigtailed macaques (Macaca nemestrina)", "details": "4 mg/kg/day oral from 21 days p.i., euthanized at 84 days p.i., n = 5", "text": "Primate model for asymptomatic acute SIV infection. To identify events during acute and asymptomatic infection that lead to CNS disease a SIV/macaque model was developed in which the vast majority of infected animals develop CNS disease. […] These findings indicated the presence of mechanisms in the CNS that quell SIV replication and macrophage activation early after infection.\nTo identify events during acute and asymptomatic infection that lead to CNS disease in a SIV/macaque, a model was needed in which the vast majority of infected animals develop CNS disease. […] Virus replication and macrophage activation markers in the CNS declined in all macaques by 21 days p.i., despite high levee virus replication in the peripheral blood at this time. These findings indicated the presence of mechanisms in the CNS that quell SIV replication and macrophage activation early after infection.\nAnimals. Twenty-eight pigtailed macaques (Macaca nemestrina) were intravenously inoculated with a virus swarm, SIV/DeltaB670, and a cloned, neurovirulent virus, SIV/17Efr. Samples of brain tissue (basal ganglia and adjacent subcortical white matter) from macaques euthanized at 10 (n=6), 21′ (n=5), 56 (n=5) and 84 (n−=12) days p.i., and from uninfected control macaques (n=3 to 8) were fixed and embedded and […] sections were cut for immunohistochemical analysis of MAPKs. Of the macaques euthanized at 84 days p.i., one had no morphologic signs of encephalitis, two had mild encephalitis, five had moderate encephalitis and four had severe encephalitis based on morphologic criteria.\nAll macaques were euthanized at 84 days p.i. and their brains examined for pathological lesions typical of SIV encephalitis."}, "[2]": {"system": "SIV/17E-Fr and SIV/DeltaB670", "assay": "SIV replication in primary macaque PBL, p27 ELISA", "format": "cell-based", "details": "pretreated with minocycline 24 hr prior to infection", "text": "(§1) The HIV strains used in these experiments were HIVBaL (for macrophage infection) and HIVIIIB (for lymphocyte infection); the SIV strains were SIV/17E-Fr and SIV/DeltaB670 (both grow well in primary macrophages and lymphocytes.).\n(§2) Virus replication was quantified over time by p24 (HIV) or p27 (SIV) ELISA."}, "[3]": {"system": "SIV/17E-Fr and SIV/DeltaB670", "assay": "SIV replication in primary macaque macrophages, p27", "format": "cell-based", "details": "for reduction in SIV p27 levels: SIV/DeltaB670-infected macrophages, 10 days p.i.", "text": "as §1, §2\nInhibition of SIV Virus in vitro. […]"}, "HIVIIIB": {"system": "HIVIIIB", "assay": "HIV replication in primary human PBL, p24 ELISA", "format": "cell-based", "text": "as §1, §2"}, "HIVBaL": {"system": "HIVBaL", "assay": "HIV replication in primary human macrophages, p24 ELISA", "format": "cell-based", "text": "as §1, §2"}, "[4]": {"details": "pretreated with minocycline 24 hr prior to infection"}},
  "note": "Structures can show the parent of a compound that is named as a salt.",
  "data": [
    {"compound": "CN(C)c1ccc(O)c2c1C[C@H]1C[C@H]3[C@H](N(C)C)C(O)=C(C(N)=O)C(=O)[C@@]3(O)C(O)=C1C2=O", "note": "[Minocycline, [4S-(4a,4aa,5aa,12aa)-4,7-bis(dimethylamino)-1,4,4a,5,5a,6,11,12a-octahydro-3,10,12,12a-tetrahydroxy-1,11-dioxo-2-naphthacenecarboxamide]monohydrochloride]", "values": [
      {"measurement": "Severity of Encephalitis: Mild (number of macaques)", "setting": "[1]", "result": 2},
      {"measurement": "Severity of Encephalitis: Moderate (number of macaques)", "setting": "[1]", "result": 0},
      {"measurement": "Severity of Encephalitis: None (number of macaques)", "setting": "[1]", "result": 3},
      {"measurement": "Severity of Encephalitis: Severe (number of macaques)", "setting": "[1]", "result": 0},
      {"measurement": "inhibition of SIV replication in PBL", "setting": "[2]", "result": 99, "unit": "%"},
      {"measurement": "inhibition of virus replication", "setting": "[3]; SIV/17E-Fr-infected macrophages", "result": 85, "unit": "%"},
      {"measurement": "reduction in SIV p27 levels", "setting": "[3]; 10 μg/ml at the time of infection", "result": 95, "unit": "%"},
      {"measurement": "reduction in SIV p27 levels", "setting": "[3]; 40 μg/ml prior to infection", "result": 98, "unit": "%"},
      {"measurement": "inhibition of SIV replication in macrophages", "setting": "[3]; [4]", "result": 85, "unit": "%"},
      {"measurement": "reduction in HIV p24 levels", "setting": "HIVIIIB; HIV-infected lymphocytes, 40 μg/ml 24 hours prior to infection, 9 days p.i.", "result": 92, "unit": "%"},
      {"measurement": "inhibition of HIV replication in PBL", "setting": "HIVIIIB; [4]", "result": 92, "unit": "%"},
      {"measurement": "reduction in HIV p24 levels", "setting": "HIVBaL; HIV-infected macrophages, 40 μg/ml 24 hours prior to infection, 9 days p.i.", "result": 99, "unit": "%"},
      {"measurement": "inhibition of HIV replication in macrophages", "setting": "HIVBaL; [4]", "result": 99, "unit": "%"}
    ]}
  ]
}
